Earlier results as cited in patent US11786526B2, “Pharmaceutical composition comprising rosuvastatin and ezetimibe and a preparation method thereof” (SANOFI, priority 2016, dated 2023).

Key:
[1] = not given; remark: listed apart in the source

| Compound | Stability in an acidic environment | Solubility in water [1] |
| --- | --- | --- |
| CC(C)c1nc(N(C)S(C)(=O)=O)nc(-c2ccc(F)cc2)c1/C=C/[C@@H](O)C[C@@H](O)CC(=O)O [rosuvastatin, (3R,5S,6E)-7-[4-(4-fluorophenyl)-2-(N-methylmethanesulfonamido)-6-(propan-2-yl)pyrimidin-5-yl]-3,5-dihydroxyhept-6-enoic acid] | unstable in an acidic environment |  |
| O=C1[C@H](CC[C@H](O)c2ccc(F)cc2)[C@@H](c2ccc(O)cc2)N1c1ccc(F)cc1 [Ezetimibe, (3R,4S)-1-(4-fluorophenyl)-3-[(3S)-3-(4-fluorophenyl)-3-hydroxypropyl]-4-(4-hydroxyphenyl)azetidin-2-one] |  | almost insoluble in water |
